Assay results taken from patent US11565998B2, “Succinate prodrug, compositions containing the succinate prodrug and uses thereof” (ABLIVA AB, priority 2019, dated 2023).
Values after ≈ are worked out from the molar mass of the structure shown. Like-named read-outs stand apart in the source and are kept apart here.

Key:
[1] = system: microsomes (Sekisui XenoTech); assay: Succinate release on incubation with microsomes (LCMS); assay type: in vitro ADME; conditions: for Compound 1 detected by LCMS: microsomes 0.5 mg/mL, NADPH, malonate
Procedure: In brief, a stock of Compound 1 Batch 12 was prepared in 50/50 DMSO/MeCN (200 mM, ×200). This mixture was then diluted 1 in 10 into microsome buffer (20 mM, ×20) consisting of K2HPO4 (Sigma Aldrich, 13.9 g/L, anhydrous), KH2PO4 (Sigma Aldrich, 2.72 g/L, anhydrous), MgCl2.6H2O (Fisher, 1.02 g/L) and EDTA (Sigma Aldrich, 0.375 g/L) dissolved in HPLC grade water. A 200 mM malonic acid (Sigma Aldrich) stock was then prepared in microsome buffer (200 mM, ×20). A 20 mM NADPH stock was also prepared in microsome buffer (20 mM, ×10). A stock of microsomes (Sekisui XenoTech, 0.625 mg/ml) was prepared in a 7 ml vial. Samples were prepared for each timepoint (T=0, 5, 15, 60 mins) as follows: 80 μL microsome stock (0.5 mg/mL final concentration), 5 μL of Compound stock ([…]), 5 μL of malonate stock (10 mM final concentration). The T=0 sample was quenched by adding 100 μL MeOH. Reaction of all timepoints was then initiated with addition of 10 μL NADPH stock (2 mM final concentration). At each timepoint, the reaction was terminated by the addition of 100 μL MeOH. Samples were shaken for 1 min, placed on ice for 10 min, then centrifuged at 3000 rpm for 10 minutes. The supernatant was then analysed by LCMS.

[2] = Aqueous formulations of Compound 1 (water, PBS, saline), concentration by HPLC; assay type: physicochemical; conditions: thermodynamic from solid
[3] = Solubility of batches of different crystallinity; assay type: physicochemical; conditions: HPLC-grade water, water, thermodynamic from solid, mainly amorphous material (as worded, refers to Example 10); read-out: aqueous solubility
Procedure: Two batches of Compound 1 were generated with different crystallinity. Batch 2 had higher crystallinity than Batch 3, which is regarded as having a higher degree of amorphous Compound 1-Batch 2 is therefore regarded as a more crystalline batch, whereas Batch 3 is regarded as a more amorphous batch. The methods used are discussed in this document.
A sample of the more amorphous Compound 1 batch 3 was added to PBS or water to a final concentration of 258 mg/mL and sonicated for 10 minutes, then shaken for 30 minutes.
A sample of the more crystalline Compound 1 batch 2 was added to HPLC-grade water (Fisher) to a final concentration of 30 mg/mL and sonicated for 10 minutes, then shaken for 30 minutes.
A sample of the more crystalline Compound 1 batch 2 was added to HPLC-grade water (Fisher) to a final concentration of 52 mg/mL and sonicated for 20 minutes, then shaken for 1 hour.
A sample of the more crystalline Compound 1 batch 2 was added to HPLC-grade water (Fisher) to a final concentration of […] and sonicated for 20 minutes, then shaken for 1.5 hours.

[4] = Stability in purified (HPLC grade) or non-purified (tap) water; assay type: physicochemical; conditions: room temperature, 6 days
Procedure: A side-by-side experiment of the stability of Compound 1 in ‘purified’ HPLC grade water (Fisher Scientific) and ‘non-purified’ tap water was set up. In brief, 1 mg/mL solutions of Compound 1 were generated in ‘purified’ HPLC grade water (Fisher Scientific) and ‘non-purified’ tap water. These were incubated at room temperature for up to 10 days. Concentration and purity of Compound 1 was assessed over time by HPLC in comparison to a standard (AUC of 8.21 RT peak at 230 nm for calculated concentration and AUC of Compound 1 peak vs impurities for purity analysis). Data presented is the average of two samples.

[5] = In vivo pharmacokinetic studies

- succinic acid release ([1]; incubated with microsomes): releases succinic acid over time
- Compound 1 detected by LCMS ([1]; batch 12, 0 min): 0.934 mM
- Compound 1 detected by LCMS ([1]; batch 12, 5 min): 0.688 mM
- Compound 1 detected by LCMS ([1]; batch 12, 15 min): 0.388 mM
- Compound 1 detected by LCMS ([1]; batch 12, 60 min): 0.080 mM
- solubility ([2]; aqueous buffer, pH 7.4, aqueous media tested, room temperature (20-25° C.), read-out: aqueous solubility): ≥ 300 mg/mL
- solubility ([2]; water and aqueous systems, water, read-out: solubility): > 500 mg/mL
- solubility ([2]; water and aqueous systems, water, read-out: solubility (molar equivalent)): ~2100 mM
- solubility at 1.5 h [3]: 850 mg/mL (≈ 3640 mM)
- degradation (loss in purity and assay) ([4]; (non-purified) tap water): Significant degradation
- degradation (loss in purity and assay) ([4]; (purified) HPLC grade water): not observed
- brain penetration [5]: brain penetrant
- oral bioavailability [5]: high oral bioavailability
SMILES: COC(=O)CCC(=O)SCCNC(C)=O [Compound 1, Methyl 3-[(2-acetylaminoethylthio)carbonyl]propionate]
